Results taken from PMC7555119, “Characterization of Novel Synthetic Polyphenols: Validation of Antioxidant and Vasculoprotective Activities” (Antioxidants, 2020).
≈ marks a conversion by molar mass, not a printed value. Read-outs that look alike come from different tables or passages of the source.

Columns and labels:
[1] = Oxygen radical absorbance capacity (ORAC) assay
Procedure: The ORAC assay was performed following Ou et al., as modified by Garcés-Rimón et al.. All samples and reagents were dissolved in phosphate buffer (75 mM; pH 7.4). […] The fluorescence was recorded at 40 °C every 55 s for 95 min using a fluorimeter (SpectraMax M2; Molecular Devices, California, USA), with excitation and emission wavelengths of 480 and 520 nm, respectively. All samples were tested in triplicate. ORAC values were expressed as μmol of Trolox equivalents (TE)/μmol of pure compound.

[2] = Stability in aqueous media (H2O/acetonitrile 80:20, HPLC-MS); type: physicochemical
From the text: The solutions were checked by HPLC-MS at regular intervals of time for 60 days. […] The rest of the compounds suffered progressive degradation, with complete disappearance from the solution after 10 or 20 days. The most unstable polyphenol derivatives were 4 and 10 (Figure S1), having both two p-dihydroxy substitutions in the phenyl rings, which points to the rapid and easy oxidation to the p-hydroquinone. From the four compounds with three phenyl rings, only one was stable in aqueous solution (17).

[3] = test system: human dermal fibroblasts (HDF); experiment: Cell viability, AlamarBlue assay; type: cell-based; conditions: 24 h, AlamarBlue, non-linear fit
Procedure: Cytotoxicity of selected antioxidant compounds was assessed using human dermal fibroblasts (HDF, Innoprot, P10856) and an AlamarBlue assay. Human fibroblasts were grown and maintained using Dulbecco’s Modified Eagle Medium high glucose (DMEM, Sigma Aldrich, D6171), supplemented with 10% Fetal Bovine Serum (FBS), 2% L-glutamine and 1% penicillin/streptomycin. Cells were incubated at 37 °C, 95% relative humidity and 5% CO2. Additionally, DMEM-high glucose, HEPES, no phenol red (Gibco, 2106329) was used to prepare the AlamarBlue solution. Stock solutions of the antioxidant compounds 3, 8, 15 and 17 were prepared in dimethyl sulfoxide (DMSO). Compound 7 was not soluble enough in DMSO to obtain a cell viability IC50 value. Serial dilutions of the antioxidant compounds were prepared using the previously mentioned stock solutions and DMEM. Final DMSO concentration was maintained lower than 1% v/v in the cell culture experiments. HDF were seeded at 9 × 10^4 cells/well in a 96-well plate and incubated for 24 h. The medium was replaced by the corresponding antioxidant solutions and incubated for an additional 24 h. Then, compounds were removed, cells were washed with Dulbecco’s Phosphate Buffered Saline (PBS, Sigma Aldrich) and treated with a 10% v/v AlamarBlue (Invitrogen) solution prepared in DMEM without phenol red. After 3 h of incubation, absorbance was monitored at 570 nm by a Multi-Detection Microplate Reader Synergy HT. Cells treated with DMEM without any antioxidant compound were used as the 100% viability control. Eight replicates were used for each antioxidant solution. IC50 values were obtained by a non-linear fit using the software GraphPad Prism 7.

[4] = test system: NADPH oxidase activity in segments of aorta from C57BL6/J mice; experiment: NADPH oxidase activity in aortic segments stimulated ex vivo with IL-1β; conditions: IL-1β 10 ng/mL 6 h
Procedure: Aortic segments from three-month-old C57BL6/J mice were incubated with IL-1β (10 ng/mL, 6 h, Sigma Aldrich) in the presence and in the absence of the different compounds that were added 30 min before stimulation.
The O2 production generated by NADPH oxidase was determined by a chemiluminescence assay. Briefly, endothelial cells or aortic segments were homogenized in phosphate buffer (50 mmol/L KH2PO4, 1 mmol/L EGTA, 150 mmol/L sucrose, pH 7.4). The reaction was started by the addition of a lucigenin (5 μmol/L) and NADPH (100 μmol/L; Sigma-Aldrich) mixture to the protein sample in a final volume of 250 μL. Chemiluminescence was determined every 2.4 s for 3 min in a microtiter plate luminometer (Enspire Perkin Elmer). Basal activity in the absence of NADPH was subtracted from each reading and normalized to protein concentration. Data were normalized vs. control situation.

[5] = test system: Saccharomyces cerevisiae strain BY4741; experiment: In vivo antioxidant capacity in stressed yeasts (growth recovery, survivors); type: cell-based
Procedure: Saccharomyces cerevisiae haploid strain BY4741 was used as described previously. Briefly, 20 μL of glycerol stock culture was revived in 5ml of YPD medium (1% yeast extract, 2% bacteriological peptone and 2% dextrose) at 28 °C, with shaking (210 rpm). Fifty microliters of 20-h-old culture was used to inoculate fresh 5ml YPD (control medium) or 5 mL of oxidative stress medium (YPOxD: YPOxD; 1% yeast extract, 2% bacteriological peptone, 1% dextrose and 3% H2O2). Stress (and control) was conducted during 16h at 28 °C, with shaking (220 rpm).
Growth rate was determined from growth kinetics using the BioScreen C plate-reader system (OY Growth Curves Ab Ldt., Helsinki, Finland). Stressed yeast cultures (16 h old) were used to inoculate 200 µl of fresh media to an initial OD595 of 0.05–0.07, being distributed in 100-well honeycomb plates (Oy Growth Curves) in triplicate per each condition (each different dose of each compound). Plates were then incubated at 28 °C for 72h, with shaking (High force), taking OD measurement each 15 min in the Bioscreen C. Maximum growth rate (μmax) and biomass production (carrying capacity) were determined in R using ‘Growthcurver’ package version 0.3 [24]. Growth curves were constructed in EXCEL, represented as mean ± SEM (standard error of mean). […] In addition, to measure survival after oxidative stress and antioxidant effectiveness of each compound, yeast cells from each challenge were serially diluted in 96-well plates, and each dilution was spotted (with a 8 × 6 stainless steel replica platter from SIGMA) in triplicate to determine viable colonies after 24–48 h at 28 °C. Survivors (mean ± SEM) were compared between treatments with one-way ANOVA, Fisher’s LSD test, with alpha at 0.05 for significance.

[6] = Aqueous thermodynamic solubility in H2O (UV); type: physicochemical; conditions: water, thermodynamic from solid
From the text: 4) Log P and aqueous solubility of selected compounds.
Table S2. Theoretical Log P values and aqueous thermodynamic solubility measured for
Comp `Chemical Structure MW LogP Calc Aqueous Solubility a
a Thermodynamic solubility in H 2O (UV). […]

## O=C(Nc1ccc(O)cc1)N(c1ccc(O)cc1)c1ccc(O)cc1 [Compound 17, N,N-bis(4-Hydroxyphenyl)-N′-(4′-hydroxyphenyl)urea]
[1]
  ORAC: 19.4 ± 0.7 µmol of trolox/µmol of pure compound
[1]; TE: Trolox Equivalents
  ORAC: > 19 TE
[2]; H2O/acetonitrile (80:20%), room temperature, checked for 60 days
  stability in aqueous media: sufficiently stable
[2]; remaining pure compound (HPLC) after two months at room temperature in aqueous solution (+20% acetonitrile)
  Aqueous Stability (%): 93%
[3]
  IC50: > 1400 µM
[3]; Homo sapiens, Fibroblast
  IC50: 1790 µM
[4]
  effect on NADPH oxidase activity induced by IL-1β: significant inhibition of the IL-1β effects
[5]; H2O2-stressed BY4741, doses 2, 20 and 40 μg
  growth rate (r) recovery of stressed yeast: best performing antioxidant
[5]; H2O2-stressed BY4741, each dose tested
  carrying capacity (k) recovery of stressed yeast: able to recover the carrying capacity of yeast cells similarly as control antioxidants
[6]
  solubility: 620 ± 10 µg/mL (≈ 1840 µM)
other
  melting point: 186 to 187 °C (dec.)
